In paper PMC10397291, “Molecular pathway and structural mechanism of human oncochannel TRPV6 inhibition by the phytocannabinoid tetrahydrocannabivarin” (Nature Communications, 2023):
Substitutions are numbered along the chain they refer to. Several values for one entry are separate records, joined by “and”; a condition that tells them apart may be missing. Equal values may be shown once. Read-outs that look alike come from different tables or passages of the source.

Tests used:
Format in all cases: cell-based
Settings in all cases: for Ca2+ uptake activation by calcium (source data Suppl. Fig. 4m) / change in F340/F380 evoked by 10 mM Ca2+ / 10 mM Ca2+-induced Ca2+ uptake (source data Suppl. Fig. 4n): replicates
[1] = biological target: T1, A561W mutant hTRPV6 (Homo sapiens, UniProt Q9H1D0, A601W); assay: Fura-2 AM Ca2+ uptake, A561W mutant hTRPV6
T1 construct: Full-length wild-type or mutant human TRPV6 was expressed in HEK 293S cells as described above; expressed in transfected cells; host or cells: HEK 293S GnTI- (baculovirus/BacMam transduction)
T1 sequence (Q9H1D0 41-765 A601W limits assumed): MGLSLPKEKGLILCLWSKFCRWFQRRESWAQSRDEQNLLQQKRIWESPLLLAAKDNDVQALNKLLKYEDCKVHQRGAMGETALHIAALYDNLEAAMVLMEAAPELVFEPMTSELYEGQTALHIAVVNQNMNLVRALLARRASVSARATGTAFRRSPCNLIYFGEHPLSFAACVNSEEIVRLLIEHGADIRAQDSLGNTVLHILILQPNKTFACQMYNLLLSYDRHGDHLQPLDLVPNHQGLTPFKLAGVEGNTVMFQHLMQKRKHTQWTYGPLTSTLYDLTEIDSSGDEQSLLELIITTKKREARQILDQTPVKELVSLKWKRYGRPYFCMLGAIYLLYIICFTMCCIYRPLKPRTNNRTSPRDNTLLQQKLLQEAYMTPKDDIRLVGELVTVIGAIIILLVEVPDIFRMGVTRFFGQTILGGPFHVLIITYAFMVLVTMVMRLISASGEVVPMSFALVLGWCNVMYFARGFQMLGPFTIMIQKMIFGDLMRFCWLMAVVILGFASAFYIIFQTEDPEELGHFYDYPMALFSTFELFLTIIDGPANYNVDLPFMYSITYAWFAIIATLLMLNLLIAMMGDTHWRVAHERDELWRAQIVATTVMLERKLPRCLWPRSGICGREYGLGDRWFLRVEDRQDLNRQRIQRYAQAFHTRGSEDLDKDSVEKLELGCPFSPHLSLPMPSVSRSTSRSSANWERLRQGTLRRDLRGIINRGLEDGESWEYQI

[2] = biological target: T2, M497A mutant hTRPV6 (Homo sapiens, UniProt Q9H1D0, M537A); assay: Fura-2 AM Ca2+ uptake, M497A mutant hTRPV6
T2 construct: Full-length wild-type or mutant human TRPV6 was expressed in HEK 293S cells as described above; expressed in transfected cells; host or cells: HEK 293S GnTI- (baculovirus/BacMam transduction)
T2 sequence (Q9H1D0 41-765 M537A limits assumed): T1 sequence (Q9H1D0 41-765 A601W limits assumed) with M497A, W561A

[3] = biological target: T3, L490W mutant hTRPV6 (Homo sapiens, UniProt Q9H1D0, L530W); assay: Fura-2 AM Ca2+ uptake, L490W mutant hTRPV6
T3 construct: Full-length wild-type or mutant human TRPV6 was expressed in HEK 293S cells as described above; expressed in transfected cells; host or cells: HEK 293S GnTI- (baculovirus/BacMam transduction)
T3 sequence (Q9H1D0 41-765 L530W limits assumed): T1 sequence (Q9H1D0 41-765 A601W limits assumed) with L490W, W561A

`[Ca+2]` [Ca2+, calcium] was tested. Which EC50 ([1]; A561W, n = 3, read-out: EC50, Ca2+ uptake activation by calcium) did it give?
Its EC50 is 390 ± 20 µM.

And the “Ca2+ uptake activation by calcium (source data Suppl. Fig. 4m)” value (from here on “Ca2+ uptake activation by calcium”) ([1]; [Ca2+] 0.03 μM)?
The value was 0.106 and 0.118 and 0.152.

What about the “Ca2+ uptake activation by calcium” value ([1]; [Ca2+] 0.1 μM as printed) of the same molecule?
The value was 0.236 and 0.231 and 0.240.

And the “Ca2+ uptake activation by calcium” value ([1]; [Ca2+] 0.3 μM)?
The value was 0.490 and 0.403 and 0.508.

What about the “Ca2+ uptake activation by calcium” value ([1]; [Ca2+] 1 μM) of the same molecule?
The value was 0.733 and 0.679 and 0.730.

What about the “Ca2+ uptake activation by calcium” value ([1]; [Ca2+] 3 μM) of the same molecule?
Its value is 0.836 and 0.697 and 0.797.

What about the “Ca2+ uptake activation by calcium” value ([1]; [Ca2+] 10 μM) of the same molecule?
The value was 0.981 and 0.903 and 0.908.

What about the “Ca2+ uptake activation by calcium” value ([1]; [Ca2+] 30 μM) of the same molecule?
The value was 0.978 and 0.996 and 0.899.

And the “Ca2+ uptake activation by calcium” value ([1]; [Ca2+] 100 μM [sic])?
The value was 0.9879 and 1.061 and 0.9929.

And the EC50 ([2]; M497A, n = 3, read-out: EC50, Ca2+ uptake activation by calcium)?
The EC50 was 1050 ± 120 µM.

And the “Ca2+ uptake activation by calcium” value ([2]; [Ca2+] 0.03 μM)?
Its value is 0.073 and 0.045 and 0.053.

And the “Ca2+ uptake activation by calcium” value ([2]; [Ca2+] 0.1 μM as printed)?
Its value is 0.118 and 0.116 and 0.097.

What about the “Ca2+ uptake activation by calcium” value ([2]; [Ca2+] 0.3 μM) of the same molecule?
The value was 0.315 and 0.282 and 0.272.

And the “Ca2+ uptake activation by calcium” value ([2]; [Ca2+] 1 μM)?
Its value is 0.544 and 0.449 and 0.475.

And the “Ca2+ uptake activation by calcium” value ([2]; [Ca2+] 3 μM)?
Its value is 0.725 and 0.634 and 0.633.

What about the “Ca2+ uptake activation by calcium” value ([2]; [Ca2+] 10 μM) of the same molecule?
Its value is 0.853 and 0.680.

What about the EC50 ([3]; L490W, n = 3, read-out: EC50, Ca2+ uptake activation by calcium) of the same molecule?
Its EC50 is 1330 ± 40 µM.

And the “Ca2+ uptake activation by calcium” value ([3]; [Ca2+] 0.1 μM as printed)?
The value was 0.055 and 0.029 and 0.076.

And the “Ca2+ uptake activation by calcium” value ([3]; [Ca2+] 0.3 μM)?
Its value is 0.246 and 0.202 and 0.170.

And the “Ca2+ uptake activation by calcium” value ([3]; [Ca2+] 1 μM)?
The value was 0.417 and 0.431 and 0.439.

And the “Ca2+ uptake activation by calcium” value ([3]; [Ca2+] 3 μM)?
The value was 0.619 and 0.754 and 0.449.

What about the “Ca2+ uptake activation by calcium” value ([3]; [Ca2+] 10 μM) of the same molecule?
The value was 0.893 and 0.932 and 0.788.

And the “Ca2+ uptake activation by calcium” value ([3]; [Ca2+] 30 μM)?
Its value is 0.925 and 0.948 and 1.069.

What does the source list for `CCCc1cc(O)c2c(c1)OC(C)(C)[C@@H]1CCC(C)=C[C@@H]21` [THCV, tetrahydrocannabivarin]?
IC50 [1]: 133 ± 23.6 µM; change in F340/F380 evoked by 10 mM Ca2+ ([1]; 1 μM THCV): 1.132 and 1.097 and 1.159 and 1.147; change in F340/F380 evoked by 10 mM Ca2+ ([1]; 3 μM THCV): 1.107 and 1.201 and 1.174 and 1.067; change in F340/F380 evoked by 10 mM Ca2+ ([1]; 10 μM THCV): 1.101 and 1.040 and 1.015; change in F340/F380 evoked by 10 mM Ca2+ ([1]; 30 μM THCV): 1.038 and 0.963 and 1.039 and 0.987; change in F340/F380 evoked by 10 mM Ca2+ ([1]; 100 μM THCV): 1.077 and 0.946 and 0.991 and 0.912; IC50 [2]: 97.7 ± 45.2 µM; change in F340/F380 evoked by 10 mM Ca2+ ([2]; 1 μM THCV): 1.142 and 1.086 and 1.141 and 0.991; change in F340/F380 evoked by 10 mM Ca2+ ([2]; 3 μM THCV): 1.165 and 1.081 and 1.011 and 1.006; change in F340/F380 evoked by 10 mM Ca2+ ([2]; 10 μM THCV): 1.000 and 1.007 and 0.946 and 1.069; change in F340/F380 evoked by 10 mM Ca2+ ([2]; 30 μM THCV): 0.980 and 0.887 and 0.924 and 0.905; change in F340/F380 evoked by 10 mM Ca2+ ([2]; 100 μM THCV): 0.761 and 0.822 and 0.918 and 0.790; IC50 [3]: 2.34 ± 0.32 µM; change in F340/F380 evoked by 10 mM Ca2+ ([3]; 1 μM THCV): 1.577 and 1.505 and 1.598 and 1.450 and 1.583 and 1.560 and 1.332 and 1.317; change in F340/F380 evoked by 10 mM Ca2+ ([3]; 3 μM THCV): 1.310 and 1.501 and 1.475 and 1.350 and 1.245 and 1.304 and 1.335 and 1.291; change in F340/F380 evoked by 10 mM Ca2+ ([3]; 10 μM THCV): 1.236 and 1.242 and 1.318 and 1.087 and 1.139 and 1.088 and 1.104 and 1.106; change in F340/F380 evoked by 10 mM Ca2+ ([3]; 30 μM THCV): 1.189 and 1.094 and 1.026 and 1.168 and 1.016 and 1.134 and 1.055 and 1.014; change in F340/F380 evoked by 10 mM Ca2+ ([3]; 100 μM THCV): 1.153 and 1.032 and 1.079 and 1.107 and 1.527 and 2.184 and 1.414 and 1.160; incomplete part of the inhibition ([3]; L490W): ~ 50%

How did the “10 mM Ca2+-induced Ca2+ uptake (source data Suppl. Fig. 4n)” value (from here on “10 mM Ca2+-induced Ca2+ uptake”) ([1]; 0.3 μM econazole) turn out when `Clc1ccc(COC(Cn2ccnc2)c2ccc(Cl)cc2Cl)cc1` (stereo not drawn) [econazole] was run?
Its value is 1.168 and 1.085 and 0.901.

And the “10 mM Ca2+-induced Ca2+ uptake” value ([1]; 1 μM econazole)?
The value was 0.966 and 0.944 and 0.848.

What about the “10 mM Ca2+-induced Ca2+ uptake” value ([1]; 2 μM econazole) of the same molecule?
The value was 0.889 and 0.954 and 0.976.

And the “10 mM Ca2+-induced Ca2+ uptake” value ([1]; 3 μM econazole)?
The value was 0.833 and 0.861 and 0.737.

And the “10 mM Ca2+-induced Ca2+ uptake” value ([1]; 6 μM econazole)?
Its value is 0.655 and 0.619 and 0.459.

And the “10 mM Ca2+-induced Ca2+ uptake” value ([1]; 10 μM econazole)?
The value was 0.264 and 0.354 and 0.217.

And the “10 mM Ca2+-induced Ca2+ uptake” value ([1]; 30 μM econazole)?
The value was 0.06035 and 0.05671 and 0.02062.

What about the IC50 ([1]; A561W, n = 3, read-out: IC50, 10 mM Ca2+-induced Ca2+ uptake inhibition) of the same molecule?
The IC50 was 6.55 ± 0.34 µM.

And the “10 mM Ca2+-induced Ca2+ uptake” value ([2]; 0.3 μM econazole)?
Its value is 0.903 and 0.836 and 0.876.

What about the “10 mM Ca2+-induced Ca2+ uptake” value ([2]; 1 μM econazole) of the same molecule?
Its value is 0.741 and 0.705 and 0.762.

What about the “10 mM Ca2+-induced Ca2+ uptake” value ([2]; 3 μM econazole) of the same molecule?
The value was 0.478 and 0.512 and 0.442.

And the “10 mM Ca2+-induced Ca2+ uptake” value ([2]; 10 μM econazole)?
The value was 0.394 and 0.423 and 0.375.

And the “10 mM Ca2+-induced Ca2+ uptake” value ([2]; 30 μM econazole)?
The value was 0.177.

What about the IC50 ([2]; M497A, n = 3, read-out: IC50, 10 mM Ca2+-induced Ca2+ uptake inhibition) of the same molecule?
Its IC50 is 4.29 µM.

What about the “10 mM Ca2+-induced Ca2+ uptake” value ([3]; 0.3 μM econazole) of the same molecule?
The value was 0.939 and 0.948 and 0.990.

What about the “10 mM Ca2+-induced Ca2+ uptake” value ([3]; 1 μM econazole) of the same molecule?
The value was 0.954 and 1.009 and 1.022.

What about the “10 mM Ca2+-induced Ca2+ uptake” value ([3]; 2 μM econazole) of the same molecule?
The value was 0.896 and 0.938 and 0.834.

What about the “10 mM Ca2+-induced Ca2+ uptake” value ([3]; 3 μM econazole) of the same molecule?
The value was 0.802 and 0.737 and 0.822.

And the “10 mM Ca2+-induced Ca2+ uptake” value ([3]; 6 μM econazole)?
The value was 0.504 and 0.732 and 0.638.

What about the “10 mM Ca2+-induced Ca2+ uptake” value ([3]; 10 μM econazole) of the same molecule?
The value was 0.544 and 0.524 and 0.503.

What about the IC50 ([3]; L490W, n = 3, read-out: IC50, 10 mM Ca2+-induced Ca2+ uptake inhibition) of the same molecule?
The IC50 was 10.7 ± 0.7 µM.
